According to US8796327B2, “Method for inhibiting production of cytokines of T helper cell type II and/or inhibiting production of chemokines using brazilin” (China Medical University, priority 2010, dated 2014):

Columns and labels:
GATA-3 mRNA = assay: Real-time PCR of GATA-3 mRNA in EL-4 T lymphoma cells; type: cell-based, mouse; conditions: for Expression level of GATA-3 mRNA: PMA + cAMP stimulated EL-4 cells, corrected to HPRT
Description: (§1) Then, at a density of 5×10^5 counts/ml, the T lymphoma cells were bred in a six-well culture dish, and at the 0th minute, brazilin of different concentrations (0.3, 1, 3, 10, or 30 micromole (μM)) was added into the cell culture solution at an amount of 1 μl/ml-cell culture solution. Then, the cells were put into the incubator to be cultured therein. 30 minutes later, at an amount of 1 μl/ml-cell culture solution, 5 μg/ml PMA and cAMP at a 250 mmol concentration were added to the cell culture solution to stimulate the expression of IL-4 and IL-5 of the T lymphoma cells. During the process of cell culture, the trypan blue exclusion assay was employed to observe effect of the brazilin on the cell viability, results of which are shown in Table 1 and FIG. 1.
Expression of mRNA of IL-4, IL-5, GATA-3, c-maf, and T-bet were analyzed in a quantitative way through real-time polymerase chain reaction (PCR) by extracting RNA in the cells obtained in Experiment A (using an RNA purifying kit), converting the RNA into cDNA through reverse transcription, and using an ABI PRISM 7700 sequence detector (Applied Biosystems, Foster City, Calif., America) to analyze the gene expression of mRNA. The PCR was carried out under the following conditions: 50° C., 2 minutes; 95° C., 10 minutes; 60° C., 1 minute; then repeating this cycle forty times. A threshold cycle (or referred to as Ct) was used to represent the expression level of each gene, and an expression level of hypoxanthine-guanine phosphoribosy transferase (HPRT) genes of the endogenous control group was used for correction of the expression level of mRNA.

IL-5 = assay: ELISA of IL-5 in supernatant of EL-4 T lymphoma cells; type: cell-based, mouse; conditions: EL-4 cells
Description: First, in an incubator containing 5 vol % of CO2 at 37° C., EL-4 mouse T lymphoma cells (commercially available from ATCC, Manassas, Va., America) were cultured in the DMEM culture medium (containing 10 wt % of thermally deactivated FBS), and were sub-cultured at a ratio of 1:3.
as §1, with “30 minutes later, at an amount of 1 μl/ml-cell culture solution, 5 μg/ml PMA and cAMP at a 250 mmol concentration were added to the cell culture solution to stimulate the expression of IL-4 and IL-5 of the T lymphoma cells.” left out
At 4° C., the T lymphoma cells obtained from Experiment A were centrifugally rotated at a rotational speed of 1000 rpm and at 4° C. for 5 minutes, and the supernatant was collected and analyzed for cytokines.
An enzyme-linked immunosorbent assay (ELISA) kit (commercially available from R&D Systems, Inc., America) was used to analyze the expression of IFN-γ, IL-4, IL-5, and eotaxin cytokines in the aforesaid supernatant, results of which are shown in Table 2, Table 3, FIG. 2, and FIG. 3.
In Experiment B and the following Experiment C, all experimental data are presented in form of “mean±standard deviation”, and statistical discrepancy was analyzed by means of the One-way ANOVA and Newman-keuls post-hoc tests, in which it is considered that there is statistical discrepancy if p<0.05.

[1] = tested on: macrophages, lymphocytes, eosinophils, and neutrophils in bronochial alveolar lavage fluid; assay: Immunocyte counts in bronochial alveolar lavage fluid, mice with asthma (OVA); type: in vivo; conditions: OVA-sensitized BALB/c mice; for Number of eosinophils (×10^4) / Number of lymphocytes (×10^4) / Number of macrophages (×10^4) / Number of neutrophils (×10^4): i.p. or i.t., bronochial alveolar lavage fluid
Description: In Example 2, mice with asthma were used to conduct in vivo experiments, and ovalbumin (OVA) was used as an allergen.
The mice were sensitized (or challenged) according to the steps shown in FIG. 9 (see Lee et al., Lentiviral-mediated GATA-3 RNAi decreases allergic airway inflammation and hyperresponsiveness. Molecular Therapy, 2008; 16:60-65, which is incorporated herein in its entirety by reference). First, 50 μg OVA (using 2 mg alumina (Alum, Alumlmuject, Pierce Chemical, Rockford, Ill., USA) as an adjuvant) was injected into six to eight-week-old BALB/c female mice (from National Laboratory Animal Center, Taiwan) by intraperitoneal injection (i.p.). At 0th, 14th, and 28th day, the mice were injected with OVA at the same dosage. Before the administration of OVA at the forty-first and the forty-second days, different dosages of brazilin (high dose: 430 μg/mice; low dose: 43 μg/mice) were administrated to the mice by intraperitoneal injection (i.p.) or intratracheal instillation (i.t.). During the fortieth to the forty-second days, 100 μg OVA was dissolved in 40 μl PBS, and was administrated to the mice by intranasal instillation (i.n.) (once everyday, for three days). At the forty-third day, airway hyperresponsiveness of the mice was observed. At the forty-sixth day, the mice were sacrificed and used to conduct the following Experiments E to G During the above procedure, it was observed if any toxicity response arises after the administration of brazilin to the mice. In this experiment, the mice administrated with OVA were used as a positive control, and the mice not administrated with OVA were used as a negative control.
In Experiment D, after 24 hours from the last administration of OVA into the noses of the mice, the mice were sacrificed, and the blood was collected from the orbital cavities of the mice. Then, a cannula was immediately inserted into the bronchi of the mice, and the lungs of the mice were washed with a 1 ml HBSS buffer solution containing no calcium and magnesium ions three times, and a bronochial alveolar lavage fluid is collected. The fluid was centrifuged at 4° C. and with a revolution speed of 400 g for 10 minutes. Cells obtained after the centrifugation were re-suspended in a 1 ml HBSS buffer solution, and the total cell number was counted with a hemocytometer.
Then, the cells were fixed on a glass sheet in a way of cytocentrifuged preparations, and the Liu's stain (see Lee et al., Lentiviral-mediated GATA-3 RNAi decreases allergic airway inflammation and hyperresponsiveness. Molecular Therapy. 2008; 16:60-65, which is incorporated herein in its entirety by reference) was carried out to calculate the number of various kinds of cells. The cell number was calculated by counting the number of macrophages, lymphocytes, eosinophils, and neutrophils in 300 cells respectively. The cells were categorized according to their standard morphology, and the invasion of inflammatory cells into the lungs was observed.

For `Oc1ccc2c(c1)OC[C@]1(O)Cc3cc(O)c(O)cc3[C@H]21` [brazilin], the “expression of mRNA of transcription factor GATA-3” value (GATA-3 mRNA; EL-4 cells, result in words) was “inhibited”, the “Expression level of GATA-3 mRNA” value (GATA-3 mRNA; brazilin 0.3 μM) was 3.960 ± 0.1234 and the “Expression level of GATA-3 mRNA” value (GATA-3 mRNA; brazilin 1 μM) was 3.036 ± 0.5622. The “Expression level of GATA-3 mRNA” value (GATA-3 mRNA; brazilin 3 μM) was 2.663 ± 0.6056, the “Expression level of GATA-3 mRNA” value (GATA-3 mRNA; brazilin 10 μM) was 1.812 ± 0.1538 and the “Expression level of GATA-3 mRNA” value (GATA-3 mRNA; brazilin 30 μM) was 1.434 ± 0.2530. For the same compound, the “expression of protein of IL-5 cytokine” value (IL-5; result in words) was “inhibited”, the “Concentration of IL-5 (pico-gram/ml)” value (IL-5; brazilin 0.3 μM + PMA + cAMP) was 2480 ± 515.9 pico-gram/ml and the “Concentration of IL-5 (pico-gram/ml)” value (IL-5; brazilin 0.3 μM, no PMA + cAMP) was 5.925 ± 3.462 pico-gram/ml. For the same compound, the “Concentration of IL-5 (pico-gram/ml)” value (IL-5; brazilin 1 μM + PMA + cAMP) was 2580 ± 402.8 pico-gram/ml, the “Concentration of IL-5 (pico-gram/ml)” value (IL-5; brazilin 1 μM, no PMA + cAMP) was 0.2422 ± 0.2422 pico-gram/ml and the “Concentration of IL-5 (pico-gram/ml)” value (IL-5; brazilin 3 μM + PMA + cAMP) was 2345 ± 392.6 pico-gram/ml. For the same compound, the “Concentration of IL-5 (pico-gram/ml)” value (IL-5; brazilin 3 μM, no PMA + cAMP) was 0.2422 ± 0.2422 pico-gram/ml, the “Concentration of IL-5 (pico-gram/ml)” value (IL-5; brazilin 10 μM + PMA + cAMP) was 1809 ± 337.9 pico-gram/ml and the “Concentration of IL-5 (pico-gram/ml)” value (IL-5; brazilin 10 μM, no PMA + cAMP) was 1.474 ± 0.9891 pico-gram/ml. The “Concentration of IL-5 (pico-gram/ml)” value (IL-5; brazilin 30 μM + PMA + cAMP) was 1292 ± 531.6 pico-gram/ml, the “Concentration of IL-5 (pico-gram/ml)” value (IL-5; brazilin 30 μM, no PMA + cAMP) was 0.0 ± 0.0 pico-gram/ml and the “Number of eosinophils (×10^4)” value ([1]; High dose (430 μg/mice)) was 10.52 ± 4.543 ×10^4. The “Number of lymphocytes (×10^4)” value ([1]; High dose (430 μg/mice)) was 0.8106 ± 0.3015 ×10^4, the “Number of macrophages (×10^4)” value ([1]; High dose (430 μg/mice)) was 34.25 ± 4.970 ×10^4 and the “Number of neutrophils (×10^4)” value ([1]; High dose (430 μg/mice)) was 0.2178 ± 0.1799 ×10^4. The “Number of eosinophils (×10^4)” value ([1]; Low dose (43 μg/mice)) was 21.39 ± 1.491 ×10^4, the “Number of lymphocytes (×10^4)” value ([1]; Low dose (43 μg/mice)) was 0.7421 ± 0.2902 ×10^4 and the “Number of macrophages (×10^4)” value ([1]; Low dose (43 μg/mice)) was 41.67 ± 6.885 ×10^4. The “Number of neutrophils (×10^4)” value ([1]; Low dose (43 μg/mice)) was 0.6476 ± 0.2759 ×10^4 and the “number of eosinophils in the lungs of the mice” value ([1]; result in words) was “decreased”.
